Experimental data published in patent US20110020312A1, “METHODS FOR TREATMENT OF METABOLIC DISORDERS USING EPIMETABOLIC SHIFTERS, MULTIDIMENSIONAL INTRACELLULAR MOLECULES, OR ENVIRONMENTAL INFLUENCERS” (priority 2009, published 2011).

Assays:
[1] = test system: HepG2 liver cancer cells; assay: ApoStrand ELISA apoptosis assay (single-stranded DNA); type: cell-based
From the text: The ApoStrand™ ELISA is based on the sensitivity of DNA in apoptotic cells to formamide denaturation and the detection of the denatured DNA with a monoclonal antibody to single-stranded DNA (ssDNA).

[2] = test system: Pancreatic Cancer Cells (PaCa2); assay: Real-time PCR Angiogenesis Array; type: cell-based; settings: 100 uM Q10, various times
Experimental: Experiments were carried out essentially as described above.

[3] = test system: Pyruvate Kinase M2 (PKM2); assay: Western blot, Pyruvate Kinase M2 levels; type: cell-based, human
Experimental: The samples were processed and run on a 4-12% Bis-Tris Novex NuPAGE gel as described above. The gels were run, transferred and stained essentially as described above.
The lactate dehydrogenase blots were stripped by incubating for 30 minutes with methanol, followed by two 10 minute washes with TBS-T, then 30 minutes of incubation with Stripping buffer at 50 deg C., and followed by two washes with 100 ml or more of TBS-T for 30′ each. The 2 blots were scanned in laser scanner to check for complete stripping. The blots were activated with methanol for 5 seconds, washed with water for 5 minutes, and TBST for 15 minutes. The blots were blocked for 1 hour with 5% blocking reagent in TBS-T at room temperature and then washed 3 times with TBS-T (1×-15′; 2×5′ each) and probed with the rabbit polyclonal antibody for Pyruvate Kinase M2 in 5% BSA (NOVUS BIOLOGICALS catalog #H00005315-DO1P) at 1:500 dilution overnight at 4 deg C. with shaking. After the overnight incubation with primary antibody for Pyruvate Kinase M2, the membranes were washed 3 times with TBS-T (1×-15′; 2×5′ each) and probed with the secondary antibody (antirabbit; 1:10,000 dilution) for 1 h on the orbital tilting shaker at room temperature. After 1 h of incubation with secondary antibodies, the blots were washed 3 times with TBS-T (1×-15′; 2×5′ each) and then incubated with ECF reagent for 5 minutes and then each blot scanned with 5100 Fuji Laser scanner at 25 uM resolution, 16 bit, green laser, at 400V and at 500 V.
The HASMC samples were processed and the gels were run, transferred, stained and scanned essentially as described above.
The above blots were stripped by incubating for 30 minutes with methanol, followed by two 10 minute washes with TBS-T, then 30 minutes of incubation with Stripping buffer at 50 deg C., and followed by two washes with 100 ml or more of TBS-T for 30′ each. The blots were scanned in laser scanner to check for complete stripping. The blots were activated with methanol for 5 seconds, washed with water for 5 minutes, and TBST for 15 minutes. The blots were blocked for 1 hour with 5% blocking reagent in TBS-T at room temperature and then washed 3 times with TBS-T (1×-15′; 2×5′ each) and probed with the primary antibody for PKM2, SDHB or SDHC in 5% BSA in TBS-T by incubation overnight at 4 deg C. with gentle shaking. The primary antibody for SDHC (ABNOVA H00006391-MO2; antimouse) was at 1:500 dilution. The primary antibody for SDHB was from Abcam ab4714-200; antimouse; at 1:1000 dilution. The primary antibody for Pyruvate Kinase M2 (PKM2) was from Novus Biologicals H00005315-D0IP; antirabbit; at 1:500 dilution. After incubation with primary antibodies, the membranes were washed 3 times with TBS-T (1×-15′; 2×5′ each) and probed with the secondary antibody (SDHB & C antimouse; and PKM2 antirabbit; 1:10,000 dilution) for 1 h on the orbital tilting shaker at room temperature. After 1 h of incubation, the blots were washed 3 times with TBS-T (1×-15′; 2×5′ each) and incubated with ECF reagent for 5 minutes and then each blot scanned with 5100 Fuji Laser scanner at 25 uM resolution, 16 bit, green laser, at 400V and at 500 V.

[4] = test system: HDFa cells; assay: Oxygen consumption rate (OCR), SeaHorse XF analyzer; type: cell-based, human; settings: presence of CoQ10
From the text: Environmental influencers (e.g., MIMs or Epi-shifters) may also be identified by changes in cellular energetics. One example of the measurement of cellular energetics are the real-time measures of the consumption of molecular oxygen and/or the change in pH of the media of a cell culture. For example, the ability of a potential epi-shifter to modulate the metabolic state of a cell may be analyzed using, for example, the XF24 Analyzer (Seahorse, Inc.). This technology allows for real time detection of oxygen and pH changes in a monolayer of cells in order to evaluate the bioenergetics of a cell microenvironment. The XF24 Analyzer measures and compares the rates of oxygen consumption (OCR), which is a measure of aerobic metabolism, and extracellular acidification (ECAR), which is a measure of glycolysis, both key indicators of cellular energetics.
(SeaHorse Biosciences Inc, North Billerica, Mass.).
In this experiment, the OCR and extracellular acidification rate (ECAR) in normal cells lines were obtained in the presence and absence of CoQ10 to determine baseline values. It was observed that in its native nutrient environment, the basal OCR rates in normal cells lines are different, and are usually a function of the physiological roles of the cells in the body. […]

In the case of `COC1=C(OC)C(=O)C(C/C=C(\C)CC/C=C(\C)CC/C=C(\C)CC/C=C(\C)CC/C=C(\C)CC/C=C(\C)CC/C=C(\C)CC/C=C(\C)CC/C=C(\C)CCC=C(C)C)=C(C)C1=O` [Q10, Coenzyme Q10], the “detectable apoptosis (ApoStrand ELISA)” value ([1]; 50 μM Q10) was 17%, the “detectable apoptosis (ApoStrand ELISA)” value ([1]; 100 μM Q10) was 32% and the “genes modulated by Q10 treatment (Angiogenesis arrays)” value [2] was “AKT1, ANGPTL4, ANGPEP, CCL2, CDH4, CXCL1, EDG1, EFNA3, EFNB2, EGF, FGF1, ID3, IL1B, 1L8, KDR, NRP1, PECAM1, PROK2, SERPINF1, SPHK1, STAB1, TGFB1, VEGFA and VEGFB”. For the same molecule, the “Pyruvate Kinase Muscle form 2 Upper Band Normalized Intensity” value ([3]; HASMC, 5g48-50) was 811, the “Pyruvate Kinase Muscle form 2 Upper Band Normalized Intensity” value ([3]; HASMC, 5g48-100) was 611 and the “Pyruvate Kinase Muscle form 2 Upper Band Normalized Intensity” value ([3]; HASMC, 22G24-50) was 477. The “Pyruvate Kinase Muscle form 2 Upper Band Normalized Intensity” value ([3]; HASMC, 22G24-100) was 701, the “Pyruvate Kinase Muscle form 2 Upper Band Normalized Intensity” value ([3]; HASMC, 22G48-50) was 595 and the “Pyruvate Kinase Muscle form 2 Upper Band Normalized Intensity” value ([3]; HASMC, 22G48-100) was 496. The “Pyruvate Kinase Muscle form 2 Upper Band Normalized Volume” value ([3]; HepG2, 5g-50, 24 h) was 29269, the “Pyruvate Kinase Muscle form 2 Upper Band Normalized Intensity” value ([3]; HepG2, 5g-50, 48 h) was 303 and the “Pyruvate Kinase Muscle form 2 Upper Band Normalized Volume” value ([3]; HepG2, 5g-100, 24 h) was 18307. The “Pyruvate Kinase Muscle form 2 Upper Band Normalized Intensity” value ([3]; HepG2, 5g-100, 48 h) was 354, the “Pyruvate Kinase Muscle form 2 Upper Band Normalized Volume” value ([3]; HepG2, 22G-50, 24 h) was 22294 and the “Pyruvate Kinase Muscle form 2 Upper Band Normalized Intensity” value ([3]; HepG2, 22G-50, 48 h) was 562. The “Pyruvate Kinase Muscle form 2 Upper Band Normalized Volume” value ([3]; HepG2, 22G-100, 24 h) was 19560, the “Pyruvate Kinase Muscle form 2 Upper Band Normalized Intensity” value ([3]; HepG2, 22G-100, 48 h) was 601 and the PKM2 expression ([3]; cancer cells tested) was “dose-dependent decrease”. For the same molecule, the PKM2 expression ([3]; normal cells) was “no major changes” and the OCR [4] was “influenced OCR”.
